Measured values: patent publication US20230265116A1, “DEGRADATION OF (EGFR) BY CONJUGATION OF EGFR INHIBITORS WITH E3 LIGASE LIGAND AND METHODS OF USE” (BEIGENE, LTD., priority 2020, published 2023)
Like-named read-outs stand apart in the source and are kept apart here.

Tests used:
Format in all cases: cell-based
[1] = system: EGFR Del19/C797S (H1975-clone #23); assay: EGFR degradation HTRF assay, H1975-clone #23 DC cells; settings: for H1975 #23 DC Dmax (%): maximum percentage of degradation
Procedure: H1975-clone #28(Del19/T790M/C797S) and H1975-clone #23(Del19/C797S). EGFR-Del19/T790M/C797S and EGFR-Del19/C797S were stably expressed in H1975 cell lines by lentivirus-mediated over-expression, respectively. The EGFR over-expressed cells then underwent gene knockout, in which the EGFR targeting sgRNA was designed to only target the endogenous EGFR copies and preserve the exogenous EGFR copies. Followed by the gene knockout, the edited H1975 cells were seeded in 96 well plates at the concentration of 1 cell/well, cultured for about 2 weeks to allow single clones formation. The formed clones were screened by DNA sequencing and whole exon sequencing analysis for the desired edition. H1975-clone #28 and H1975-clone #23 were finally confirmed as homozygous Del19/T790M/C797S EGFR and Del19/C797S EGFR clones, respectively.
BaF3 WT(wild type), BaF3-LTC(L858R/T790M/C797S) and BaF3-DTC(Del19/T790M/C797S) cells are treated with compounds diluted in 0.2% DMSO cell culture medium and incubate for 16h, 37° C., 5% CO2, H1975-#36, H1975-#28, H1975-#23 and HCC827 cells are treated with compounds diluted in 0.2% DMSO cell culture medium on day 2, incubate for 16h, 37° C., 5% CO2.the final concentriation of compounds in all assay is start with 10 uM, 5-fold dilution, total 8 doses were included.
After 16h treatment, add HTRF lysis buffer to each well; seal the plate and incubate 1 hour at room temperature on a plate shaker; Once the cells are lysed, 16 μL of cell lysate are transferred to a PE 384-well HTRF detection plate; 4 μL of pre-mixed HTRF antibodies are added to each well; Cover the plate with a plate sealer, spin 1000 rpm for 1 min, Incubate overnight at room temperature; Read on BMG PheraStar with HTRF protocol (337 nm-665 nm-620 nm).
The inhibition (degradation) percentage of the compound was calculated by the following equation: Inhibition percentage of Compound=100-100×(Signal-low control)/(High control-low control), wherein signal=each test compound group
High control=Cell group with added DMSO and without compound, indicating microplate readings without EGFR degradation;
Dmax is the maximum percentage of inhibition (degradation).
The IC50 (DC50) value of a compound can be obtained by fitting the following equation
Y=Bottom+(TOP−Bottom)/(1+((IC50/X)^hillslope))
Wherein, X and Y are known values, and IC50, Hillslope, Top and Bottom are the parameters obtained by fitting with software. Y is the inhibition percentage (calculated from the equation), X is the concentration of the compound; IC50 is the concentration of the compound when the 50% inhibition is reached. The smaller the IC50 value is, the stronger the inhibitory ability of the compound is. Vice versa, the higher the IC50 value is, the weaker the inhibitory ability of the compound is; Hillslope represents the slope of the fitted curve, generally around 1*; Bottom represents the minimum value of the curve obtained by data fitting, which is generally 0%±20%; Top represents the maximum value of the curve obtained by data fitting, which is generally 100%±20%. The experimental data were fitted by calculating and analyzing with Dotmatics data analysis software.

[2] = molecular target: T1, EGFR L858R/C797S (BaF3 LC cells) (Homo sapiens, UniProt P00533, C797S/L858R); assay: EGFR degradation HTRF assay, BaF3 LC cells
T1 construct: expressed in transfected cells; host or cells: BaF3

[3] = system: EGFR Del19/T790M/C797S (H1975-clone #28); assay: EGFR degradation HTRF assay, H1975-clone #28 DTC cells
Procedure, shortened: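 Lentiviral Del19/T790M/C797S (clone #28) or Del19/C797S (clone #23) EGFR expressed in H1975 with endogenous EGFR knocked out. Cells treated 16 h, 37 °C, 8 doses, 5-fold from 10 uM top, 0.2% DMSO; EGFR read by HTRF after lysis. Degradation % vs DMSO control; DC50, Dmax from four-parameter fit.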

[4] = molecular target: T2, EGFR L858R/T790M/C797S (BaF3-LTC cells) (Homo sapiens, UniProt P00533, C797S/L858R/T790M); assay: EGFR degradation HTRF assay, BaF3-LTC cells
T2 construct: expressed in transfected cells; host or cells: BaF3
Procedure, shortened: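 EGFR remaining after a 16 h, 37 °C exposure (8 doses, 5-fold steps from 10 uM final, 0.2% DMSO) was quantified by HTRF antibodies in cell lysate. Percent inhibition relative to DMSO control was fitted by four-parameter logistic to give DC50; Dmax denotes maximal degradation.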

[5] = H1975 #23 DC, 16h treatment, read-out: H1975 #23 DC DC50
[6] = BaF3 LC, 16h treatment; read-out: BaF3 LC DC50
[7] = H1975 # 28 DTC cells; EGFR degradation, IC50 (DC50) from curve fit; read-out: DC50(nM) H1975 # 28 DTC
[8] = H1975 # 28 DTC cells; maximum percentage of inhibition (degradation)
[9] = BaF3-LTC cells; EGFR degradation, IC50 (DC50) from curve fit; read-out: DC50(nM) BaF3-LTC
[10] = BaF3 LC, 16h treatment, maximum percentage of degradation; read-out: BaF3 LC Dmax (%)
[11] = BaF3-LTC cells; maximum percentage of inhibition (degradation); read-out: Dmax (%) BaF3-LTC

T2 sequence (P00533 25-1210 T790M/C797S/L858R): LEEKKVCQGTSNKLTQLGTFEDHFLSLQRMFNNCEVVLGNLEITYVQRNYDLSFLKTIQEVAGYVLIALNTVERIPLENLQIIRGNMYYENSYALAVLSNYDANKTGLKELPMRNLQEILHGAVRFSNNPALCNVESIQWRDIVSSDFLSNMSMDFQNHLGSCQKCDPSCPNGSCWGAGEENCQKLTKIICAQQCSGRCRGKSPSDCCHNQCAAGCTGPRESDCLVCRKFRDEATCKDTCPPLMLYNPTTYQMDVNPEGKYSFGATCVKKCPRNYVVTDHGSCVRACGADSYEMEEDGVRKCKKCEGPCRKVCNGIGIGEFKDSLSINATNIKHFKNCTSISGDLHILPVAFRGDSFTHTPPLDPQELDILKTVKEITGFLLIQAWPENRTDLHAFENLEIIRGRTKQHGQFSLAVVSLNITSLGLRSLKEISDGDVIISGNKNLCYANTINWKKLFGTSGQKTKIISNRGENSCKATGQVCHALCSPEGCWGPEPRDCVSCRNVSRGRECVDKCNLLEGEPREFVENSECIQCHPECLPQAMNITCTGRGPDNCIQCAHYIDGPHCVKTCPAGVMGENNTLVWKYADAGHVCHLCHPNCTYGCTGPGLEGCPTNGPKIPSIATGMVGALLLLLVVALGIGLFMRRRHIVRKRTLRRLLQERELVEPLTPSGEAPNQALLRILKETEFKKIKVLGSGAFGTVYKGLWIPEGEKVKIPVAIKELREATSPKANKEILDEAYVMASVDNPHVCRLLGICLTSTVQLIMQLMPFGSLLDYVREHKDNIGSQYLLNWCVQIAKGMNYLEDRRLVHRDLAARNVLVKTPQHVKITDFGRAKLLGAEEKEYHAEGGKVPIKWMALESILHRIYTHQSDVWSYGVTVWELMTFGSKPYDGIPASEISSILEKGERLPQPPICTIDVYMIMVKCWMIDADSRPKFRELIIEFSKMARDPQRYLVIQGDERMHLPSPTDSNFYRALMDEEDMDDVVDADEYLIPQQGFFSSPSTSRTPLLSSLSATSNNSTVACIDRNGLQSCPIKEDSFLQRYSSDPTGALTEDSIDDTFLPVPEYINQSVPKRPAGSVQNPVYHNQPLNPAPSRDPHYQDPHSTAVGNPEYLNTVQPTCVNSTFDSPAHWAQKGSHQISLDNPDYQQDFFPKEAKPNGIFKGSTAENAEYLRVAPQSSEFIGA
T1 sequence (P00533 25-1210 C797S/L858R): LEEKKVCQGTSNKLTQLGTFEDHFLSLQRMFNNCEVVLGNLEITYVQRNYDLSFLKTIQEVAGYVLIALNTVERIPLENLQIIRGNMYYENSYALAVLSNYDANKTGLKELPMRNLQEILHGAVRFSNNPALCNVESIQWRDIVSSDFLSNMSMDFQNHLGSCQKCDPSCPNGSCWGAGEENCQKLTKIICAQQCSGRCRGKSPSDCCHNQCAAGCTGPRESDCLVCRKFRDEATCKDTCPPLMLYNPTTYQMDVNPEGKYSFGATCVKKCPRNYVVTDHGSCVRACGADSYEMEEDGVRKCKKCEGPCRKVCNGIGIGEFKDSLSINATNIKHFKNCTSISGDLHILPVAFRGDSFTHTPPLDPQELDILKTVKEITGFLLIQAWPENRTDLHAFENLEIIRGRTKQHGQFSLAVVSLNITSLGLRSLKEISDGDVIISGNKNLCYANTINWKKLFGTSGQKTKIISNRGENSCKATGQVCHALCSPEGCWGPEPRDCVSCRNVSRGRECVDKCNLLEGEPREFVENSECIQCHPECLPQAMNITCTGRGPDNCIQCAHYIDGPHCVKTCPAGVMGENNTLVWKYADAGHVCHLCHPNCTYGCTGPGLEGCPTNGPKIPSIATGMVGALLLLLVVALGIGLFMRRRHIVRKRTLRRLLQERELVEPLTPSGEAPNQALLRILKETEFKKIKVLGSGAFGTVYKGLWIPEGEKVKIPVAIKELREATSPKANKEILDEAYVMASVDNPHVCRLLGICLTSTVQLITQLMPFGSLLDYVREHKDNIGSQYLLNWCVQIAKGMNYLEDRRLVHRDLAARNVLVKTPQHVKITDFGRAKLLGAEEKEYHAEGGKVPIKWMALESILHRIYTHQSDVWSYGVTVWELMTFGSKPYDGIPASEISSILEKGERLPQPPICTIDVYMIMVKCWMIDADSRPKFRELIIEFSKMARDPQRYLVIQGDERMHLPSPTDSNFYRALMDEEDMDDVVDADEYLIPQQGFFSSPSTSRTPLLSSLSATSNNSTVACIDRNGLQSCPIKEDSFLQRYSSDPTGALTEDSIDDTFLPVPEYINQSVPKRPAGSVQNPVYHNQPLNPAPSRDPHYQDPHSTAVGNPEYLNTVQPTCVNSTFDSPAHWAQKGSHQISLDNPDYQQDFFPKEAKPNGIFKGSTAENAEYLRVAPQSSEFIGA

DC50 [1, 5]	DC50 [2, 6]	DC50 [3, 7]	DC50 [4, 9]	Dmax [2, 10]	Dmax [4, 11]	SMILES	H1975 #23 DC Dmax (%) ([1]; 16h treatment)	Dmax (%) H1975 # 28 DTC [3, 8]	DC50 ([1]; read-out: H1975 #23 DC DC50, 16h treatment)	Dmax ([2]; BaF3, read-out: BaF3 LC Dmax (%))	DC50 ([2]; read-out: BaF3 LC DC50; BaF3 LC, 16h treatment)	DC50 ([3]; read-out: DC50(nM) H1975 # 28 DTC; H1975 # 28 DTC cells; EGFR degradation, IC50 (DC50) from curve fit)	DC50 ([4]; read-out: DC50(nM) BaF3-LTC; BaF3-LTC cells; EGFR degradation, IC50 (DC50) from curve fit)	Dmax ([4]; read-out: Dmax (%) BaF3-LTC, BaF3-LTC cells; maximum percentage of inhibition (degradation))
2.04 nM	22.5 nM	0.96 nM	6.1 nM	91.7%	93%	CCc1cc(Nc2ncc(Br)c(Nc3ccc4nc(C)ccc4c3P(C)(C)=O)n2)c(OC)cc1N1CCC(N2CCN(CCc3cccc4c3oc(=O)n4C3CCC(=O)NC3=O)CC2)CC1 (stereo not shown) [Example 506, 3-(7-(2-(4-(1-(4-((5-bromo-4-((5-(dimethylphosphoryl)-2-methylquinolin-6-yl)amino)pyrimidin-2-yl)amino)-2-ethyl-5-methoxyphenyl)piperidin-4-yl)piperazin-1-yl)ethyl)-2-oxobenzo[d]oxazol-3(2H)-yl)piperidine-2,6-dione]	80.87%	84.41%						
0.85 nM	2.34 nM	0.647 nM	2.72 nM			CCc1ccc2c(P(C)(C)=O)c(Nc3nc(Nc4cc(CC)c(N5CCC(N6CCN(CCc7ccc8c(c7)oc(=O)n8C7CCC(=O)NC7=O)CC6)CC5)cc4OC)ncc3Br)ccc2n1 (stereo not shown) [Example 491, 3-(6-(2-(4-(1-(4-((5-bromo-4-((5-(dimethylphosphoryl)-2-ethylquinolin-6-yl)amino)pyrimidin-2-yl)amino)-2-ethyl-5-methoxyphenyl)piperidin-4-yl)piperazin-1-yl)ethyl)-2-oxobenzo[d]oxazol-3(2H)-yl)piperidine-2,6-dione]	58.85%	78.48%						
1.48 nM	21.7 nM	2.6 nM	11.6 nM	89.8%	90%	CCOc1cc(N2CCC(N3CCN(CCc4cc(C)cc5c4oc(=O)n5C4CCC(=O)NC4=O)CC3)CC2)c(CC)cc1Nc1ncc(Br)c(Nc2ccc3nc(CC)ccc3c2P(C)(C)=O)n1 (stereo not shown) [Example 469, 3-(7-(2-(4-(1-(4-((5-bromo-4-((5-(dimethylphosphoryl)-2-ethylquinolin-6-yl)amino)pyrimidin-2-yl)amino)-5-ethoxy-2-ethylphenyl)piperidin-4-yl)piperazin-1-yl)ethyl)-5-methyl-2-oxobenzo[d]oxazol-3(2H)-yl)piperidine-2,6-dione]	73.64%	81.32%						

Second part, the molecule before the results:

SMILES	DC50 [1, 5]	DC50 [2, 6]	DC50 [3, 7]	DC50 [4, 9]	Dmax [2, 10]	Dmax [4, 11]	H1975 #23 DC Dmax (%) ([1]; 16h treatment)	Dmax (%) H1975 # 28 DTC [3, 8]	DC50 ([1]; read-out: H1975 #23 DC DC50, 16h treatment)	Dmax ([2]; BaF3, read-out: BaF3 LC Dmax (%))	DC50 ([2]; read-out: BaF3 LC DC50; BaF3 LC, 16h treatment)	DC50 ([3]; read-out: DC50(nM) H1975 # 28 DTC; H1975 # 28 DTC cells; EGFR degradation, IC50 (DC50) from curve fit)	DC50 ([4]; read-out: DC50(nM) BaF3-LTC; BaF3-LTC cells; EGFR degradation, IC50 (DC50) from curve fit)	Dmax ([4]; read-out: Dmax (%) BaF3-LTC, BaF3-LTC cells; maximum percentage of inhibition (degradation))
CCc1ncc2c(P(C)(C)=O)c(Nc3nc(Nc4cc(CC)c(N5CCC(N6CCN(C(=O)[C@@H]7CCN(c8cc(F)c([C@H]9CCC(=O)NC9=O)c(F)c8)C7)CC6)CC5)cc4OC)ncc3Br)ccc2n1 [Example 549, (R)-3-(4-((R)-3-(4-(1-(4-((5-bromo-4-((5-(dimethylphosphoryl)-2-ethylquinazolin-6-yl)amino)pyrimidin-2-yl)amino)-2-ethyl-5-methoxyphenyl)piperidin-4-yl)piperazine-1-carbonyl)pyrrolidin-1-yl)-2,6-difluorophenyl)piperidine-2,6-dione]	2.96 nM	1.59 nM	0.601 nM	3.1 nM			63.66%	88.85%						
CCOc1cc(N2CCC(N3CCN(CCc4cccc5c4C(C)(C)C(=O)N5C4CCC(=O)NC4=O)CC3)CC2)c(CC)cc1Nc1ncc(Br)c(Nc2ccc3c(=O)n(CC)ncc3c2P(C)(C)=O)n1 (stereo not shown) [Example 501, 3-(4-(2-(4-(1-(4-((5-bromo-4-((5-(dimethylphosphoryl)-2-ethyl-1-oxo-1,2-dihydrophthalazin-6-yl)amino)pyrimidin-2-yl)amino)-5-ethoxy-2-ethylphenyl)piperidin-4-yl)piperazin-1-yl)ethyl)-3,3-dimethyl-2-oxoindolin-1-yl)piperidine-2,6-dione]	3.29 nM	1.49 nM	0.759 nM	3.34 nM			65.52%	85.93%						
CCc1ccc2c(P(C)(C)=O)c(Nc3nc(Nc4cc(CC)c(N5CCC(N6CCN(C(=O)C7CN(c8cccc9c8oc(=O)n9C8CCC(=O)NC8=O)C7)CC6)CC5)cc4OC)ncc3Br)ccc2n1 (stereo not shown) [Example 446, 3-(7-(3-(4-(1-(4-((5-bromo-4-((5-(dimethylphosphoryl)-2-ethylquinolin-6-yl)amino)pyrimidin-2-yl)amino)-2-ethyl-5-methoxyphenyl)piperidin-4-yl)piperazine-1-carbonyl)azetidin-1-yl)-2-oxobenzo[d]oxazol-3(2H)-yl)piperidine-2,6-dione]							59.25%	80.48%	0.616 nM	81.7%	5.87 nM	0.726 nM	3.89 nM	96.4%
CCc1ccc2c(P(C)(C)=O)c(Nc3nc(Nc4cc(CC)c(N5CCC(N6CCN(C(=O)[C@@H]7CCN(c8cc(F)c([C@H]9CCC(=O)NC9=O)c(F)c8)C7)CC6)CC5)cc4OC)ncc3Br)cc(F)c2n1 [Example 533, (R)-3-(4-((R)-3-(4-(1-(4-((5-bromo-4-((5-(dimethylphosphoryl)-2-ethyl-8-fluoroquinolin-6-yl)amino)pyrimidin-2-yl)amino)-2-ethyl-5-methoxyphenyl)piperidin-4-yl)piperazine-1-carbonyl)pyrrolidin-1-yl)-2,6-difluorophenyl)piperidine-2,6-dione]	7.47 nM	28.8 nM	1.18 nM	5.05 nM	90.8%	97.2%	73.47%	83.78%						
CCc1cc(Nc2ncc(Br)c(Nc3ccc4c(=O)n(C5CC5)ncc4c3P(C)(C)=O)n2)c(OC)cc1N1CCC(N2CCN(C(=O)[C@@H]3CCN(c4cc(F)c([C@H]5CCC(=O)NC5=O)c(F)c4)C3)CC2)CC1 [Example 526, (R)-3-(4-((R)-3-(4-(1-(4-((5-bromo-4-((2-cyclopropyl-5-(dimethylphosphoryl)-1-oxo-1,2-dihydrophthalazin-6-yl)amino)pyrimidin-2-yl)amino)-2-ethyl-5-methoxyphenyl)piperidin-4-yl)piperazine-1-carbonyl)pyrrolidin-1-yl)-2,6-difluorophenyl)piperidine-2,6-dione]	5.87 nM	40.3 nM	0.574 nM	3.77 nM	74.6%	96.3%	52.26%	83.99%						
